| SMILES | melting point |
| --- | --- |
| CC(=O)NC1(c2ccccc2)CC1 | 94 to 95 °C |
| Cc1cccc(Cl)c1OC1CN(C(c2ccccc2)c2ccccc2)C1 | 92 to 93 °C |
| O=C(O)c1c(I)c(I)c(C(=O)O)c(I)c1I | 205 to 206 °C |
| CC1=C(C#CC(C)C=CO)C(C)(C)CCC1=O (stereo not drawn) | 102 to 105 °C |
| O=C(Cc1ccccc1)N1CCN(c2ccc(Cl)cc2)CC1 | 93 to 94 °C |
| CSc1nnc(C(C)(C)C)[nH]1 | 191 to 194 °C |
| O=C(N[C@@H](Cc1c[nH]c2ccccc12)C(=O)O)C(CS)C(F)(F)F (stereo partly drawn) | 144 to 147 °C |
| O=C(O)CCCC=C1SC[C@H]2[C@@H]1N(Cc1ccccc1)C(=O)N2Cc1ccccc1 | 79 to 82 °C |
| COc1cc2c(c(Cl)c1Cl)SC(C1CCCCC1)C2O (stereo not drawn) | 166 to 167 °C |
| Cc1c(F)c(Cl)cc2c1c(=O)c(C(=O)O)cn2C1CC1 | 258 to 260 °C |
| CCOCCC(=O)C1CCC2C3CCC4CC(O)CCC4(C)C3C(=O)CC12C (stereo not drawn) | 126 to 130 °C |
| CC(C)(C)NC(=O)[C@@H]1CCCN1C(=O)[C@@H](O)[C@H](Cc1ccccc1)NC(=O)[C@H](CC(N)=O)NC(=O)COC1CCN(C(=O)OCc2ccccc2)CC1 | 98 to 104 °C |
| CC(=O)SCC(Cc1ccccc1)C(=O)Nc1ccc(N2CCCC2)c(C(=O)O)c1 (stereo not drawn) | 176 to 178 °C |
| CCSc1cc(C)nc(SCC)c1NC(=O)CSc1nc2ccccc2s1 | 119 to 120 °C |
| NC(=NO)c1ncn2c1[C@@H]1CCN1C(=O)c1c-2ccc(F)c1Cl | 236 to 238 °C |
| O=C(O)CCc1nnc2c(=O)[nH]c3cc(C(F)(F)F)ccc3n12 | 333 °C |
| CC(C)(C)c1cc(C(C)(C)c2cc(C(C)(C)C)c(O)c(C(C)(C)C)c2)cc(C(C)(C)C)c1O | 148 to 154 °C |
| O=C(CN1CN(OC(F)(F)F)C=N1)c1ccccc1 | 98 to 101 °C |
| O=C(N1CCN(c2ccccc2)CC1)N1CC(Oc2ccc(Br)cc2)C1 | 160 to 161 °C |
| CCc1cccc(CC)c1NC(=O)NC1CCC(c2ccccc2)CC1 (stereo not drawn) | 247 to 249 °C |
| CCN1C[C@@H](O)[C@H](N(C)C(=O)c2ccc(Cl)cc2)C1 (relative stereo) | 91 to 93 °C |

| SMILES | melting point |
| --- | --- |
| Cc1ccc(Br)c(C)c1C(O)=S | 98 to 103 °C |
| COc1ccc2c3c1CCCC3C(CN1CCN(C)CC1)CC2 (stereo not drawn) | 115 to 116 °C |
| Nc1ccccc1NC(=O)CCN1CCN(c2cccc(C(F)(F)F)c2)CC1 | 194 to 196 °C |
| Cc1cn(C)c(CO)n1 | 125 to 126 °C |
| CCOC(=O)c1cn(NC=O)c2nc(C)ccc2c1=O | 214 °C |
| CN(C(=O)c1ccc2nonc2c1)C1CCC(=NO)CC1 (stereo not drawn) | 197 to 198 °C |
| O=S1(=O)c2ccccc2-c2ccccc2N1CCCN1CCN(c2ccc(F)cc2)CC1 | 163 °C |
| CCCCCn1cc(C(=O)O)c(=O)cc1C | 126 °C |
| CCCCC(=O)Nc1ccccc1C(N)=O | 119 to 120 °C |
| NCc1ccn(C2=CC3=C(CC2)CCc2[nH]c(=O)c(=O)n(CC(=O)O)c23)c1 | > 250 °C |
| CCCc1cc(C(=O)NCCC(N)=O)ccc1OC(C(=O)NS(=O)(=O)c1ccc(C(C)C)cc1)c1ccc2c(c1)OCO2 (stereo not drawn) | 110 to 112 °C |
| CC1(C)CC(O)CC(C)(C)N1OCc1ccccc1 | 86 to 87 °C |
| CC1(C)CC2(NC(=O)NC2=O)c2ccccc2O1 (stereo not drawn) | 233 to 235 °C |
| CNC(=C[N+](=O)[O-])NCCSCc1nccc(NC(N)=NCC(F)(F)F)n1 | 154 to 157 °C |
| Cc1cc(CCCOc2c(C)cc(-c3noc(CI)n3)cc2C)on1 | 89 to 90 °C |
| CCOC(=O)C(=O)Nc1cc(C(F)(F)F)c(Cl)cc1[N+](=O)[O-] | 96.5 to 97.5 °C |
| Cc1nc(C)c(C(C)(O)c2ccccn2)s1 (stereo not drawn) | 104 to 105 °C |
| O=C(NCc1ccccc1Br)c1ccc2cnccc2n1 | 129 to 130 °C |
| CNC(=O)[C@@H](NC(=O)[C@H](CC(=O)NOCc1ccccc1)CC(C)C)C(C)(C)C | 128 to 129 °C |
| CC(C)(C)CC(C)(C)n1scc(Br)c1=O | 133 to 142 °C |
| CNC(=O)C(Cc1ccc(OC)cc1)NC(=O)C(CC(C)C)C(CC(=O)OC)SC(C)=O (stereo not drawn) | 118 to 135 °C |

| SMILES | melting point |
| --- | --- |
| CCOC(=O)C=CN1C(C)(C)CC(N(C=O)CCCCCCN(C=O)C2CC(C)(C)N(C=CC(=O)OCC)C(C)(C)C2)CC1(C)C | 172 °C |
| COCOc1cc(OC)c(OCOC)c(CCCCCc2c(OC)c(OCOC)c(C)c(OC)c2OCOC)c1OC | 76 to 77 °C |
| CC12CCC3=C(CCC(CCCC#N)O3)C1=CCC2=O (stereo not drawn) | 100 °C |
| CCC(NS(=O)(=O)c1ccc(Cl)cc1)c1ccccc1 (stereo not drawn) | 140 to 142 °C |
| CCCCn1c(=O)n2cnnc2c2[nH]c(-c3cc(S(=O)(=O)N4CCN(C(C)(C)CO)CC4)ccc3OCCC)nc21 | 237 °C |
| CNC(=O)CC1(C)OCCn2c1c(C)c1ccccc12 (stereo not drawn) | 131 to 133 °C |
| CCCNC(=O)Nc1ccc(N)cc1C(=O)NCC1CCN(C(c2ccccc2)c2ccccc2)CC1 | 213 to 214 °C |
| CCNc1nc(N)c(SC)c(Cl)n1 | 124 °C |
| O=C(O)[C@H]1C[C@H](NCc2ccccc2)c2c(Cl)cc(Cl)cc2N1 (relative stereo) | 112 to 114 °C |
| O=C(O)CSCC(Cc1ccccc1)NCCS (stereo not drawn) | 201 °C |
| COC(=O)C(=O)CC(=O)c1ccccn1 | 86 to 87 °C |
| O=C(CNC(=O)c1cc([N+](=O)[O-])ccc1F)OCc1ccccc1 | 56 to 58 °C |
| Cc1c(F)cccc1NC(=O)CN1CC2CCC(C1)N2S(=O)(=O)c1ccccc1 | 168 to 169 °C |
| CCOC(=O)c1[nH]c(C)c(C)c1CC(C)C | 109 to 111 °C |
| COC1=CC23CCN(C=O)C(Cc4cccc(OC)c42)C3CC1 (stereo not drawn) | 169 to 172 °C |
| CCOC(=O)c1cccc(NC(=O)NCC(=O)O)c1 | 174 °C |
| CN1C(=O)C(NC(=O)C23CC4CC(CC(C4)C2)C3)N=C(c2ccccc2)c2ccccc21 (racemic) | 256 to 257 °C |
| CCOC(=O)C(CC(=O)c1ccc(OC)cc1)(NC(C)=O)C(=O)OCC | 120 to 122 °C |
| C=CCNc1nc(NCC=C)c2scc(C)c2n1 | 77 to 80 °C |

The remaining lines, values ahead:

| melting point | SMILES |
| --- | --- |
| 95 °C | CC(C)c1ccc(C(=O)c2ccc([N+](=O)[O-])cc2)cc1 |
| 182 to 184 °C | CCc1ccc2oc(C(=O)Nc3ccc(-c4ccc(S(=O)(=O)NC(C(=O)OC)C(C)C)cc4)cc3)c(C)c2c1OC(C)C (stereo not drawn) |
| 191 to 192 °C | Cn1cnc(COc2nn3c(-c4ccon4)nnc3c3ccccc23)c1 |
| 170 to 172 °C | CCOC(=O)c1cc(C(=O)c2cccc(S(=O)(=O)F)c2)sc1N=Nc1ccc(O)c(N)n1 |
| 166 to 169 °C | CC(C)(C)OC(=O)N1CCC(c2ccc3nc(-c4ccc(S(C)(=O)=O)cc4F)oc3c2)CC1 |
| 109 to 110 °C | OC1CCCCC1Oc1cccc(COc2cccc3cccnc23)c1 (stereo not drawn) |
| 128 to 130 °C | Cc1cccc(-c2[nH]c(C(C)C)nc2-c2cccc(-c3ccc(C)[nH]3)c2)n1 |
| 159 °C | COc1cc2c(Cl)nc(-c3ccc(Cl)cc3)nc2c(OC)c1OC |
| 175 to 177 °C | Cn1cc(C(=O)NCc2ccc(Cl)cc2)c(=O)c2cc(CC3CCOCC3)cc(I)c21 |
| 130 to 140 °C | COc1cc2c3c(c1)c(N)c(C(=O)N1CCc4ccccc41)c(=O)n3CCO2 |
| 140 to 142 °C | COc1ccc2c3c(c(=O)oc2c1)CN(Cc1ccc(Cl)cc1)CC3 |
| 125 to 130 °C | O=C(c1ccc(-c2ccsc2)cc1Cl)c1cccc2c1Nc1ncccc1CN2 |
| 158 to 160 °C | Cc1cc(Cc2ccccc2)c(NC(=O)OCc2ccccc2)c(=O)n1CC(=O)O |
| 179 °C | COc1ccccc1C(=O)N1CCCC(=O)c2ccc(Cl)cc2CCC1=O |
| 255 °C | CCN(CC)c1ccc(-c2cc(-c3ccc(C(=O)O)cc3)ccc2CCCNC2CCCC2)cc1C(C)(C)C |
| 210 to 211 °C | CC(C)(C)c1ccc(NC(=O)c2ccc(C#N)cc2)cc1 |
| 161 to 162 °C | CCc1nc(/C=C/c2cccc(O)c2)sc1C |
| 152 to 155 °C | COc1ccc(C)cc1NC(=O)Nc1ccc(N2CCN(C(=O)Nc3ccc(CO)cc3Cl)CC2)cc1 |
| 138 to 140 °C | CCC1(CC)c2cc(I)ccc2-c2ccc(C=O)cc21 |

| melting point | SMILES |
| --- | --- |
| 122 to 124 °C | COc1ccc2ccc(O)c(N=O)c2c1 |
| 206 to 208 °C | COc1ccc(S(=O)(=O)Nc2c(C)c(C)c3c(c2C)C(c2ccc(C(C)C)cc2)C(C)(C)O3)cc1 (stereo not drawn) |
| 80 to 82 °C | COc1ccc(Nc2nc(NC3CCCCCC3)nc(Oc3ccc(I)cc3)n2)cc1Cl |
| 157 to 159 °C | COC(=O)CCNC(=O)c1ccc2c(c1)nc(-c1ccc(C#N)cc1)n2CCC(c1ccccc1)c1ccccc1 |
| 133 to 135 °C | COc1ccc(C=CC(=O)O)cc1-c1cc2c(cc1OCCCCCC(N)=O)C(C)(C)CCC2(C)C |
| 248 to 250 °C | Cc1cc(C(=O)O)ccc1-c1ccc2cc3c(cc2c1)C(C)(C)CCC3(C)C |
| 174 to 176 °C | CSC1C(=O)Nc2c(Nc3ccccc3)cccc21 (stereo not drawn) |
| 242 to 244 °C | O=C1c2ccccc2-c2c1nc(Cl)c1ccccc21 |
| 168 to 170 °C | CC(=C1SC(=O)NC1=O)c1cccc(OCCCOc2c(-c3ccc(F)cc3)n(C)c3ccccc3c2=O)c1 |
| 301 to 303 °C | COc1cc(OC)c2c(=O)cc(-c3ccc(O)cc3)oc2c1 |
| 165 °C | Cc1nc(-c2ccc(O)cc2)c(C(C)C)s1 |
| 169 to 173 °C | COc1ccc2ccc(C(=O)CNC(=O)Cc3ccc4ccccc4c3)cc2c1 |
| 166 to 169 °C | Nc1c(F)c(-c2ccc(Cl)cc2)nc(C=O)c1Cl |
| 116 to 117 °C | CCOC(=O)CCc1cc(-c2ccc(C)cc2)n(-c2ccc(S(N)(=O)=O)cc2)n1 |
| 131 °C | Cc1nc(-c2ccc(Cl)cc2)sc1C(=O)NCc1ccc(OC(C)(C)C(=O)O)cc1 |
| 204 to 208 °C | Nc1c(-c2ccc(NS(=O)(=O)c3ccccc3Cl)cc2F)cnc2c(CO)cnn12 |
| > 270 °C | CC1(C)C(=O)NC(=O)c2c1ccc(NC(=O)c1ccccc1)c2[N+](=O)[O-] |
| 188 to 189 °C | COc1cc2c3ccc(OC)c(OC)c3n(S(=O)(=O)c3ccc([N+](=O)[O-])cc3)c2cc1OC |
